The values below come from publication PMC9750858, “Rapid biosensor development using plant hormone receptors as reprogrammable scaffolds” (Nature Biotechnology, 2022).

Assay [1] concerns the target T1, PYR1^DIAZI (Arabidopsis thaliana, UniProt O49686, A160V/E8G/F108Y/F159G/L87M/M158V/V81Y). As to the kind of experiment: Split NanoLuc luciferase complementation in yeast, NLuc^N-PYR1^DIAZI/NLuc^C-HAB1. The format is cell-based. Also on record: >PYR1-DIAZI; expressed in transfected cells; host or cells: Saccharomyces cerevisiae BY4742.
Assay [2] has as its target T1, PYR1^DIAZI. As to the kind of experiment: Yeast transcriptional activation circuit Z4-PYR1/VP64-ΔN-HAB1, GFP reporter, PYR1^DIAZI. The conditions noted are these: panel of six chemically similar organophosphates.
In assay [3] the target is T2, PYR1^PIRI / HAB1 (Arabidopsis thaliana, UniProt O49686, A160T/E130G/F159T/K59R/N119S/S122Q/S92M/V174A).
T2 construct: made in house
T2 sequence (O49686 with tags, fused parts or gaps K59R/S92M/N119S/S122Q/E130G/F159T/A160T/V174A): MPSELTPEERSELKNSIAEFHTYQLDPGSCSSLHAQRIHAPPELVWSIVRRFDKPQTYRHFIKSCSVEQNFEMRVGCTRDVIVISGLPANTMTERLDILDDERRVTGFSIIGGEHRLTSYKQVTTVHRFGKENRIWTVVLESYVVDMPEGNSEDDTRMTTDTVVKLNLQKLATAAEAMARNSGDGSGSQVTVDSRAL
As to the kind of experiment: Ligand/receptor-mediated PP2C (HAB1 phosphatase) inhibition, PYR1^PIRI. The assay is classed as biochemical. The conditions noted are these: HAB1 inhibition and Y2H assays.

Assay [4] deals with T3, PYR1^DIAZI / HAB1 (Arabidopsis thaliana, UniProt O49686, A160V/E8G/F108Y/F159G/L87M/M158V/V81Y).
T3 construct: made in house
T3 sequence (O49686 with tags, fused parts or gaps E8G/V81Y/L87M/F108Y/M158V/F159G/A160V): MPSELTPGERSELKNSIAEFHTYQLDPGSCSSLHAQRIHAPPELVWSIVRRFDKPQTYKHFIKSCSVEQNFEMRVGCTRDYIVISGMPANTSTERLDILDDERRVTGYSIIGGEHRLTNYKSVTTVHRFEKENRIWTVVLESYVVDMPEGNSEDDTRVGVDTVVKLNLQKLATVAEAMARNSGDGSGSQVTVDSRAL
As to the kind of experiment: Ligand/receptor-mediated PP2C (HAB1 phosphatase) inhibition, PYR1^DIAZI. The assay is classed as biochemical.

Assay [5] deals with T4, PYR1^DIAZI-M (Arabidopsis thaliana, UniProt O49686, A160V/E8G/F108Y/F159G/H60P/L87M/M158V/N90S/V81Y).
T4 construct: made in house
T4 sequence (O49686 with tags, fused parts or gaps E8G/H60P/V81Y/L87M/N90S/F108Y/M158V/F159G/A160V): T3 sequence (O49686 with tags, fused parts or gaps E8G/V81Y/L87M/F108Y/M158V/F159G/A160V) with H60P, N90S
Kind of assay: ELISA-like plate assay, immobilized PYR1^DIAZI-M, biotinylated ΔN-HAB1^T+. The format is binding. The note with it: tested at 20 μM, ELISA-format. For orientation: An ELISA detects its analyte on a solid surface through an enzyme-linked reagent.

In assay [6] the target is T5, PYR1^4F (Arabidopsis thaliana, UniProt O49686, A160G/F159V/H115Q/Y120G).
T5 sequence (O49686 with tags, fused parts or gaps H115Q/Y120G/F159V/A160G): T3 sequence (O49686 with tags, fused parts or gaps E8G/V81Y/L87M/F108Y/M158V/F159G/A160V) with G8E, Y81V, M87L, Y108F, H115Q, Y120G, V158M, G159V, V160G
T5 sequence (Q9CAJ0 179-511 partner): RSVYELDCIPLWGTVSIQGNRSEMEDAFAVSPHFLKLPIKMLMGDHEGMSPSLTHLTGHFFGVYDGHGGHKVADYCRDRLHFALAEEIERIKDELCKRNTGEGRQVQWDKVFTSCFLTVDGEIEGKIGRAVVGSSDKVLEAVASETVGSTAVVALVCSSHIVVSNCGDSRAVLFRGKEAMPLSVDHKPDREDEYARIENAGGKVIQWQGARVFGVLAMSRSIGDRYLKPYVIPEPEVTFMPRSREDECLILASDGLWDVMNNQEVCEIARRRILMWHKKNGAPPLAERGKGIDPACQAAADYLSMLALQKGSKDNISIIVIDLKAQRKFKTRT
Kind of assay: Yeast transcriptional activation circuit Z4-PYR1/VP64-ΔN-HAB1, GFP reporter, PYR1^4F.

Assay [7] deals with T6, PYR1^WIN-M (Arabidopsis thaliana, UniProt O49686, A160I/D26G/E4G/F159A/H60P/K59Q/N90S/Y23H).
T6 construct: made in house
T6 sequence (O49686 with tags, fused parts or gaps E4G/Y23H/D26G/K59Q/H60P/N90S/F159A/A160I): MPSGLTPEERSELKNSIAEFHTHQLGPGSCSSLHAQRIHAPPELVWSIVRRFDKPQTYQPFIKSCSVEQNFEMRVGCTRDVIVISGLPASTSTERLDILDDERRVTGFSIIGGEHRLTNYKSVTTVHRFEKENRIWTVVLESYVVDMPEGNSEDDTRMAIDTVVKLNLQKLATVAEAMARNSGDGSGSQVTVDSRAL
As to the kind of experiment: ELISA-like plate assay, immobilized PYR1^WIN-M, biotinylated ΔN-HAB1^T+. The format is binding. The note with it: replicates.

Assay [8] addresses T7, PYR1^4F / ΔN-HAB1 (Arabidopsis thaliana, UniProt O49686, A160G/F159V/H115Q/Y120G).
T7 construct: 6xHis (N); made in house; host or cells: E. coli BL21 (DE3) pLysS
T7 sequence (O49686 with tags, fused parts or gaps H115Q/Y120G/F159V/A160G): T3 sequence (O49686 with tags, fused parts or gaps E8G/V81Y/L87M/F108Y/M158V/F159G/A160V) with G8E, Y81V, M87L, Y108F, H115Q, Y120G, V158M, G159V, V160G
T7 sequence (Q9CAJ0 179-511 partner): T5 sequence (Q9CAJ0 179-511 partner)
Kind of assay: Ligand/receptor-mediated PP2C (ΔN-HAB1 phosphatase) inhibition, PYR1^4F. The assay is classed as biochemical. Here is the method:
Coding sequences of the cannabinoid sensors were cloned into the protein expression vector pET28a to encode 6×His-tag-receptor fusions. Constructs were sequenced and transformed into the BL21 (DE3) pLysS E. coli strain for heterologous expression with IPTG (1 mM), followed by purification, using affinity chromatography, as previously reported. In vitro validation of evolved sensors was performed by using recombinant sensors and ΔN-HAB1 (HAB1 Δ1–178, ref. [36]) proteins, as previously described. […] Cannabinoid concentration curves ranged from 4 to 10,000 nM, and median inhibitory concentrations for PP2C inhibition were obtained via fluorescent measurement in the presence of 1 mM 4-methylumbelliferyl phosphate.

Assay [9] addresses T5, PYR1^4F. Kind of assay: Split NanoLuc luciferase complementation in yeast, NLuc^N-PYR1^4F/NLuc^C-ΔN-HAB1. The assay is classed as cell-based. Also on record: >PYR1-4FMDMB; expressed in transfected cells; host or cells: Saccharomyces cerevisiae BY4742.

Positions count from the first letter of the chain named. Where “and” joins values, the source holds several entries; their conditions need not be identical. Identical values can stand only once.

For the compound `CCOP(=S)(OCC)Oc1cc(C)nc(C(C)C)n1` [Diazinon, diazinon], the EC50 (commonly the concentration that produces a half-maximal response) in [1] was 24 nM; in [4], 36 nM. The “PYR1^DIAZI EC50 to on-target ligand relative to other organophosphates” value in assay [2] is listed as “greater than tenfold lower than all other molecules profiled”. Also, the “ligand concentrations required for activation of PYR1^PIRI above background” value in [3] is on record as “high-nanomolar to low-micromolar”. For the same compound, in assay [5], the “discrimination of on-target ligand from other organophosphates by PYR1^DIAZI” value is listed as “good discrimination”.

`COC(=O)C(NC(=O)c1nn(CCCCF)c2ccccc12)C(C)(C)C` (stereo not shown) [4F-MDMB, 4F-MDMB-BUTINACA]: the 50% effective concentration (EC50) is 23 nM in [6], 102 nM in assay [8] and 25 nM in assay [9]. The “ELISA signal generation, receptor cross-reactivity (source data)” value in assay [7] (cannabinoid at 2 nM) is 0.813 and 0.154 and 0.125; in assay [7] (cannabinoid at 2 μM), 0.116 and 0.117 and 0.101.
